Measurements reported in PubChem BioAssay (NCI).
“And” between values parts separate entries of the source, which are not always exact repeats. Equal values may be shown once.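 Results reflect a 48-hour exposure of cells in 96-well plates to compound at five concentrations. Here, GI50 denotes the concentration required for 50% inhibition of growth. TGI marks complete inhibition of growth.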

What was measured:
Experiment in all cases: DTP human tumour cell line panel, 48 h
[1] = tested on: ACHN renal
[2] = tested on: COLO 205 colon
[3] = tested on: LOX IMVI melanoma
[4] = tested on: MOLT-4 leukemia
[5] = tested on: OVCAR-3 ovarian
[6] = tested on: OVCAR-4 ovarian
[7] = tested on: OVCAR-5 ovarian
[8] = tested on: RPMI-8226 leukemia
[9] = tested on: SF-295 CNS
[10] = tested on: SK-MEL-28 melanoma

Q: For `O=C1/C(=C/c2ccc(Cl)cc2)CN(C(=O)CCN2CCC(=NO)CC2)C/C1=C\c1ccc(Cl)cc1`, which GI50 [1] is on record?
A: 557 nM

Q: And the TGI [1]?
A: 1560 nM

Q: And the GI50 [2]?
A: 345 nM

Q: And the TGI [2]?
A: 1320 nM

Q: What about the GI50 [3] of the same molecule?
A: 224 nM

Q: What about the TGI [3] of the same molecule?
A: 570 nM

Q: What about the GI50 [4] of the same molecule?
A: 397 nM

Q: And the GI50 [5]?
A: 628 nM

Q: What about the TGI [5] of the same molecule?
A: 1780 nM

Q: And the GI50 [6]?
A: 834 nM

Q: And the TGI [6]?
A: 2390 nM

Q: And the GI50 [7]?
A: 1360 nM

Q: And the TGI [7]?
A: 2850 nM

Q: What about the GI50 [8] of the same molecule?
A: 157 nM

Q: What about the TGI [8] of the same molecule?
A: 552 nM

Q: And the GI50 [9]?
A: 1460 nM

Q: And the TGI [9]?
A: 2860 nM

Q: And the GI50 [10]?
A: 1570 nM

Q: And the TGI [10]?
A: 2960 nM

Q: For `c1ccc2cc(C[n+]3ccn(Cc4ccc5ccccc5n4)c3)ccc2c1`, which GI50 [1] is on record?
A: 5540 nM

Q: What about the TGI [1] of the same molecule?
A: 18500 nM

Q: And the GI50 [2]?
A: 239 nM and 1720 nM

Q: What about the TGI [2] of the same molecule?
A: 738 nM and 5070 nM

Q: What about the GI50 [3] of the same molecule?
A: 435 nM and 2900 nM

Q: And the TGI [3]?
A: 1680 nM and 11400 nM

Q: What about the GI50 [4] of the same molecule?
A: 488 nM and 3190 nM

Q: What about the TGI [4] of the same molecule?
A: 5040 nM and 14700 nM

Q: What about the GI50 [5] of the same molecule?
A: 316 nM and 2150 nM

Q: And the TGI [5]?
A: 1980 nM and 13200 nM

Q: And the GI50 [6]?
A: 260 nM and 1430 nM

Q: And the TGI [6]?
A: 4800 nM and 15200 nM

Q: What about the GI50 [7] of the same molecule?
A: 588 nM and 3580 nM

Q: What about the TGI [7] of the same molecule?
A: 9520 nM and 16700 nM

Q: What about the GI50 [8] of the same molecule?
A: 196 nM and 876 nM

Q: What about the GI50 [9] of the same molecule?
A: 710 nM and 4460 nM

Q: What about the TGI [9] of the same molecule?
A: 4980 nM and 18700 nM

Q: And the GI50 [10]?
A: 325 nM and 2780 nM

Q: What about the TGI [10] of the same molecule?
A: 1350 nM and 13000 nM

Q: Which results are given for `COc1ccc2c(c1)C(=O)c1c-2c(N2CCN(C(=O)CNCCN(C)C)CC2)nc2ccccc12`?
A: GI50 [1]: 4650 nM; TGI [1]: 17400 nM; GI50 [2]: 1650 nM; TGI [2]: 3200 nM; GI50 [3]: 1710 nM; TGI [3]: 3330 nM; GI50 [4]: 1470 nM; TGI [4]: 5980 nM; GI50 [5]: 2010 nM; TGI [5]: 5760 nM; GI50 [6]: 5620 nM; TGI [6]: 16700 nM; GI50 [7]: 2200 nM; TGI [7]: 5820 nM; GI50 [8]: 1670 nM; TGI [8]: 3840 nM; GI50 [9]: 2480 nM; TGI [9]: 5340 nM; GI50 [10]: 1670 nM; TGI [10]: 3040 nM

Q: With `COc1ccc2c(c1)[nH]c(=O)c1c3cc(OC)c(OC)cc3cn21` as the molecule, how does the GI50 [1] read?
A: < 10 nM

Q: What about the TGI [1] of the same molecule?
A: 16100 nM

Q: What about the GI50 [2] of the same molecule?
A: < 10 nM

Q: And the TGI [2]?
A: 63.5 nM

Q: What about the GI50 [3] of the same molecule?
A: < 10 nM

Q: And the TGI [3]?
A: 1690 nM

Q: And the GI50 [4]?
A: < 15.9 nM

Q: What about the TGI [4] of the same molecule?
A: 1160 nM

Q: And the GI50 [5]?
A: < 10 nM

Q: What about the TGI [5] of the same molecule?
A: < 10 nM

Q: What about the GI50 [6] of the same molecule?
A: 38.4 nM

Q: And the TGI [6]?
A: 4720 nM

Q: And the GI50 [7]?
A: 41.1 nM

Q: What about the TGI [7] of the same molecule?
A: 18100 nM

Q: What about the GI50 [8] of the same molecule?
A: < 13.4 nM

Q: And the GI50 [9]?
A: < 10 nM

Q: What about the TGI [9] of the same molecule?
A: 409 nM

Q: What about the GI50 [10] of the same molecule?
A: < 10 nM

Q: And the TGI [10]?
A: 18200 nM

Q: Which results are given for `O=C(Nc1ccc(Oc2ccc(NC(=O)Nc3ccc([N+](=O)[O-])cc3)cc2)cc1)Nc1ccc([N+](=O)[O-])cc1`?
A: GI50 [1]: 1920 nM; TGI [1]: > 52600 nM; GI50 [2]: 1630 nM; TGI [2]: 3220 nM; GI50 [3]: 1780 nM; TGI [3]: 10700 nM; GI50 [4]: 1190 nM; TGI [4]: 4800 nM; GI50 [5]: 2120 nM; TGI [5]: > 30300 nM; GI50 [6]: 2070 nM; TGI [6]: > 100000 nM; GI50 [7]: 3590 nM; TGI [7]: > 100000 nM; GI50 [8]: 303 nM; TGI [8]: 1840 nM; GI50 [9]: 1170 nM; TGI [9]: 17900 nM; GI50 [10]: 3280 nM; TGI [10]: 43200 nM

Q: Which GI50 [1] does the source give for `CCSc1ccc([C@@H]2[C@@H](N)C(=O)N2c2cc(OC)c(OC)c(OC)c2)cc1` here?
A: 71 nM

Q: And the TGI [1]?
A: > 100000 nM

Q: And the GI50 [2]?
A: 51.3 nM

Q: And the TGI [2]?
A: 11700 nM

Q: What about the GI50 [3] of the same molecule?
A: 75.4 nM

Q: What about the TGI [3] of the same molecule?
A: > 100000 nM

Q: What about the GI50 [4] of the same molecule?
A: 52.8 nM

Q: What about the TGI [4] of the same molecule?
A: > 100000 nM

Q: What about the GI50 [5] of the same molecule?
A: 33.8 nM

Q: What about the TGI [5] of the same molecule?
A: 2080 nM

Q: What about the GI50 [6] of the same molecule?
A: 9310 nM

Q: And the TGI [6]?
A: > 100000 nM

Q: And the GI50 [7]?
A: 892 nM

Q: And the TGI [7]?
A: > 100000 nM

Q: And the GI50 [8]?
A: 86.2 nM

Q: And the TGI [8]?
A: 46900 nM

Q: And the GI50 [9]?
A: 51.5 nM

Q: And the TGI [9]?
A: > 100000 nM

Q: What about the GI50 [10] of the same molecule?
A: 3790 nM

Q: And the TGI [10]?
A: > 100000 nM
